Laboratory results as given in patent US20240358015A1, “HERBICIDAL COMPOSITIONS” (Agrematch Ltd., priority 2021, published 2024).

Assays:
[1] = system: Amaranthus palmeri; assay: Growth-chamber post-emergence herbicidal assay (Example 2); assay type: in vivo
Experimental: Herbicidal activity was determined by post-emergence application on 8-day old plants (weeds) of the Amaranthus palmeri and Setaria viridis species that were grown at 16 hours/8 hours day/night cycles at 30° C./25° C., respectively. Leaf stage was typically 4-6 for A. palmeri and 3-4 for S. viridis.
In each treatment, 2-3 pots, each containing about 5 plants each (for Setaria viridis), and one 9-pack, containing about 9 plants (for Amaranthus palmeri), were sprayed using a VL-SET Paasche Airbrush with 0.3-1.5 ml solution containing 0.125-2 mg/ml of a tested compound, which is equivalent to about 125-2000 g/ha.
(§1) Damage assessment: Herbicidal activity was assessed and scored 3-4 days after application by visual inspection of the plants in comparison to plants treated with the formulation alone (with no active ingredient) as control. Activity score is in the range of 0 to 100, where 0 represents no herbicidal activity like control plants and 100 represents the maximal herbicidal activity (i.e., total death of the plant).
Formulation design: Compounds were tested on A. Palmeri in various formulations, and in varying concentrations for each of the tested formulations, in order to determine optimal conditions for its application and performance. Activity scores were determined as described hereinabove. Solubility scores were determined by visual inspection on a scale of 1-10, with 10 representing complete solubilization and 1 represents nullified solubilization.
Each of the obtained solution was then mixed with different adjuvants and applied at a rate equivalent to 500 g/ha for A. palmeri and 1000 g/ha for S. viridis. Herbicidal activity scores 3-4 days after application are presented Table 3 below.

[2] = system: E. colonum; assay: Growth-chamber post-emergence assay on various weed species (Example 7); assay type: in vivo, Echinochloa colonum; conditions: 1500 g/ha; 0.8% MIPA, 0.25% Genapol, 2% HASTEN, 0.05% Break-Thru
Experimental: (§2) Herbicidal activity of Compound 1 was determined by post-emergence application on various weed species. 8-14 day old plants (weeds) were grown at 16 hours/8 hours day/night cycles at 30° C./25° C., respectively. Leaf stage was typically 2-6.
(§3) In each treatment, 3 pots (either 7×7 or 8×12 cm), containing about 3-6 plants each, were sprayed using a VL-SET Paasche Airbrush with a 1-1.5 ml-solution containing 0.5-1.5 mg/ml of the tested compound, which is equivalent to about 500-1500 g/ha.
as §1

[3] = system: Z. mays; assay: Greenhouse post-emergence assay (Example 3); assay type: in vivo, Zea mays; conditions: 4% TWEEN 20, 0.05 M Tris buffer pH 8, 0.05% Break-Thru
Experimental: Plant seeds were sowed in 9 cm×9 cm×10 cm flowerpots. Timing of sowing (days before treatment application) for each plant is detailed in Table 7 below. 5 flowerpots of each species were used for each treatment. Seeds were sowed in wet clay soil and then covered with about 1 cm layer of dry clay soil.
Irrigation: Irrigation was carried out using VIBRONET-UD (NETAFIM) sprinklers hanging upside down one meter above the flowerpots. Water flow capacity-50 liters per hour. Irrigation was carried out three times a day for 10 minutes.
Treatments: Table 8 presents generally the protocols of the various treatments used in these assays.
(§4) 57.6 ml of 0.05 M Tris buffer pH=8 were added to 150 mg of Compound 1 and the mixture was stirred using a magnetic stirrer. 2.4 ml of TWEEN®20 were added and the mixture was stirred using a magnetic stirrer to obtain a 4% TWEEN®20-containing solution. 30 μl of Break-Thru were added to obtain a 0.05% Break-Thru-containing solution.
as §4, with “225” for “150”
Plants were sprayed using a DeVreis Generation 4 Research Track Sprayer with a TEE JET nozzle 80015EVS. Spraying volume was 200 L/ha using the following sprayer parameters: • Spray speed-2 KMH • Spray length-1.50 m • Spray pressure-42 PSI
Each plant was sprayed twice, yielding a total spraying volume of 400 L/ha. Nozzle was located 55 cm above pots ground level.
A. palmeri, S. viridis and S. nigrum plants were elevated with 8 cm tray, Z. mays plants were elevated with 3 cm tray in order to achieve a similar spraying height for all plant's foliage.
Plants were scored by visual inspection of symptoms, on a scale of 0-100, where 0 represents no herbicidal activity like control plants and 100 represents the maximal herbicidal activity (i.e., total death of the plant). Each pot was scored separately. DAT=days after treatment

[4] = system: S. viridis; assay: Growth-chamber post-emergence assay on various weed species (Example 7); assay type: in vivo, Setaria viridis; conditions: 0.05% Break-Thru
Experimental: as §2, §3, §1

[5] = system: B. cinerea; assay: PDA plate fungicidal assay (Example 4); assay type: cell-based, Botrytis cinerea; conditions: average of two plates
Experimental: Compound 1 was dissolved in 0.05 M Tris buffer pH=8 to a concentration of 4 mg/ml, and then diluted with a sterile PDA solution to final concentrations of 40 and 400 μg/ml. 10 ml of each solution were poured to a 100 mm petri dish and left to cool down. A 0.5 cm diameter agar disc inoculated with 3-day old B. cinerea hypha was placed upside down in the center of each PDA plate. Each treatment contained two repeats (two plates). Plates were incubated at 21° C. for 4 days. Fungicidal activity was scored by measuring the radial growth area of the hypha. Results were recorded 2-4 days after inoculation (DAI). % growth inhibition was calculated relative to control treatment without Compound 1.

O=C(O)c1cc(O)c2c(c1)C(=O)c1cccc(O)c1C2=O [Compound 1, Rhein]
Herbicidal activity score ([1]; 500 g/ha, 0.5 mg/ml in 0.007% Ammonium hydroxide, 0.25% Adsee, 3-4 days after application): 30 | Herbicidal activity score ([1]; 500 g/ha, 0.5 mg/ml in 0.007% Ammonium hydroxide, 0.25% Genapol X-080, 3-4 days after application): 50 | Herbicidal activity score ([1]; 500 g/ha, 0.5 mg/ml in 0.007% Ammonium hydroxide, 0.7% Sodium Lauryl Ether sulfate, 3-4 days after application): 85 | Herbicidal activity score ([1]; 500 g/ha, 0.5 mg/ml in 0.007% Ammonium hydroxide, 1% AGNIQUE, 0.05% Ca-LAS, 0.02% BSU, 3-4 days after application): 70 | Herbicidal activity score ([1]; 500 g/ha, 0.5 mg/ml in 0.007% Ammonium hydroxide, 2% Tween 20, 3-4 days after application, scale 0-100): 60 | Herbicidal activity score ([1]; 500 g/ha, 0.5 mg/ml in 0.019% MIPA, 0.25% Adsee, 3-4 days after application): 80 | Herbicidal activity score ([1]; 500 g/ha, 0.5 mg/ml in 0.019% MIPA, 0.25% Genapol X-080, 3-4 days after application): 70 | Herbicidal activity score ([1]; 500 g/ha, 0.5 mg/ml in 0.019% MIPA, 0.7% Sodium Lauryl Ether sulfate, 3-4 days after application): 90 | Herbicidal activity score ([1]; 500 g/ha, 0.5 mg/ml in 0.019% MIPA, 1% AGNIQUE, 0.05% Ca-LAS, 0.02% BSU, 3-4 days after application): 80 | Herbicidal activity score ([1]; 500 g/ha, 0.5 mg/ml in 0.019% MIPA, 2% Tween 20, 3-4 days after application): 95 | Activity Score ([1]; 500 g/ha, 2% TWEEN 20, 5 mM MIPA, 1% AGNIQUE, 0.05% Ca-LAS, 0.02% BSU, 0.05% Break-Thru): 95 | Activity Score ([1]; 1000 g/ha, 1% TWEEN 80, 0.05M Tris buffer pH 8, 0.05% Break-Thru, 3-4 days after application, scale 0-100): 100 | Activity Score ([1]; 1500 g/ha, 4% TWEEN 20, 0.05M Tris buffer pH 8, 0.05% Break-Thru): 95 | Activity Score ([1]; 2000 g/ha, 1% TWEEN 80, 0.05M Tris buffer pH 8, 0.05% Break-Thru): 95 | Herbicidal activity score [2]: 90 | Score by visual inspection of symptoms (average ± standard deviation, 5 pots) ([3]; 1000 g/ha (2.5 mg/ml, 400 L/ha), 1 DAT, scale 0-100): 0 ± 0 | Score by visual inspection of symptoms (average ± standard deviation, 5 pots) ([3]; 1000 g/ha (2.5 mg/ml, 400 L/ha), 3 DAT): 30 ± 0 | Score by visual inspection of symptoms (average ± standard deviation, 5 pots) ([3]; 1000 g/ha (2.5 mg/ml, 400 L/ha), 6 DAT): 20 ± 0 | Score by visual inspection of symptoms (average ± standard deviation, 5 pots) ([3]; 1000 g/ha (2.5 mg/ml, 400 L/ha), 8 DAT): 22 ± 4.5 | Score by visual inspection of symptoms (average ± standard deviation, 5 pots) ([3]; 1000 g/ha (2.5 mg/ml, 400 L/ha), 15 DAT): 10 ± 0 | Score by visual inspection of symptoms (average ± standard deviation, 5 pots) ([3]; 1500 g/ha (3.75 mg/ml, 400 L/ha), 1 DAT): 0 ± 0 | Score by visual inspection of symptoms (average ± standard deviation, 5 pots) ([3]; 1500 g/ha (3.75 mg/ml, 400 L/ha), 3 DAT): 30 ± 0 | Score by visual inspection of symptoms (average ± standard deviation, 5 pots) ([3]; 1500 g/ha (3.75 mg/ml, 400 L/ha), 6 DAT): 30 ± 0 | Score by visual inspection of symptoms (average ± standard deviation, 5 pots) ([3]; 1500 g/ha (3.75 mg/ml, 400 L/ha), 8 DAT): 28 ± 4.5 | Score by visual inspection of symptoms (average ± standard deviation, 5 pots) ([3]; 1500 g/ha (3.75 mg/ml, 400 L/ha), 15 DAT): 20 ± 0 | Herbicidal activity score ([4]; 500 g/ha, 0.8% MIPA, 0.25% Genapol, 1% AGNIQUE, 0.05% Ca-LAS, 0.02% BSU): 70 | Herbicidal activity score ([4]; 750 g/ha, 0.2% MIPA, 2% TWEEN20, 1% AGNIQUE, 0.05% Ca-LAS, 0.02% BSU): 70 | Herbicidal activity score ([4]; 1500 g/ha, 0.8% MIPA, 0.25% Genapol, 2% HASTEN): 100 | % growth inhibition (radial growth area of the hypha, relative to control) ([5]; 40 μg/ml in PDA, 2 DAI): 61% | % growth inhibition (radial growth area of the hypha, relative to control) ([5]; 40 μg/ml in PDA, 3 DAI): 82% | % growth inhibition (radial growth area of the hypha, relative to control) ([5]; 40 μg/ml in PDA, 4 DAI): 86% | % growth inhibition (radial growth area of the hypha, relative to control) ([5]; 400 μg/ml in PDA, 2 DAI): 82% | % growth inhibition (radial growth area of the hypha, relative to control) ([5]; 400 μg/ml in PDA, 3 DAI): 88% | % growth inhibition (radial growth area of the hypha, relative to control) ([5]; 400 μg/ml in PDA, 4 DAI): 83%
